# Source: patent US20240033124A1, “DRUG DELIVERY CONTACT LENS AND OPHTHALMIC PHARMACEUTICAL COMPOSITION” (DAE WON PHARMACEUTICAL CO., LTD, priority 2021, published 2024)
# Assay: Drug release test according to blocking ratio of chamber unit (Franz diffusion cell)
# Assay type: physicochemical
# Experimental: In order to evaluate drug release characteristics according to the size of the blocking unit (blocking film) that is bonded to the chamber unit, which is for storing the drug, and is for blocking the release of the drug stored in the chamber unit, contact lenses for drug delivery of FIG. 4 having various blocking ratios were prepared.
# Specifically, contact lenses for drug delivery bonded to blocking units (blocking films) capable of blocking a […], with respect to a total area of the chamber unit were prepared, a drug was injected into each chamber unit, and drug release characteristics were evaluated.
# The drug release test was conducted by putting the contact lens for drug delivery into a Franz diffusion cell and evaluating, and the test was conducted while maintaining the temperature at 37.0±0.5° C. and by using a phosphate buffer solution of pH 7.4. A solution in which lifitegrast was dissolved in distilled water was injected into the chamber unit of contact lenses for drug delivery, and the contact lenses were mounted on a donor. In addition, the experiment was conducted in a manner that 5 mL of the solution in which the drug was released was collected with a syringe from each container, and filled with the same amount of buffer solution at a predetermined sampling time (0.5, 1, 1.5, 2, 3, 4, 6 hours), after 5 mL of the solution containing the collected drug was filtered through a syringe filter, 2 mL each was put into a vial and used as a test solution, and the obtained test solution was analyzed by using high-performance liquid chromatography (HPLC).
compound,measurement,setting,value
CS(=O)(=O)c1cccc(C[C@H](NC(=O)c2c(Cl)cc3c(c2Cl)CCN(C(=O)c2ccc4ccoc4c2)C3)C(=O)O)c1 [lifitegrast],Cumulative drug release (%),"blocking ratio 0%, 0 h",0%
same,Cumulative drug release (%),"blocking ratio 0%, 0.5 h",95%
same,Cumulative drug release (%),"blocking ratio 0%, 1 h",100%
same,Cumulative drug release (%),"blocking ratio 0%, 1.5 h",100%
same,Cumulative drug release (%),"blocking ratio 0%, 2 h",100%
same,Cumulative drug release (%),"blocking ratio 0%, 3 h",100%
same,Cumulative drug release (%),"blocking ratio 0%, 4 h",100%
same,Cumulative drug release (%),"blocking ratio 0%, 5 h",100%
same,Cumulative drug release (%),"blocking ratio 0%, 6 h",100%
same,Cumulative drug release (%),"blocking ratio 2.5%, 0 h",0%
same,Cumulative drug release (%),"blocking ratio 2.5%, 0.5 h",90%
same,Cumulative drug release (%),"blocking ratio 2.5%, 1 h",95%
same,Cumulative drug release (%),"blocking ratio 2.5%, 1.5 h",100%
same,Cumulative drug release (%),"blocking ratio 2.5%, 2 h",100%
same,Cumulative drug release (%),"blocking ratio 2.5%, 3 h",100%
same,Cumulative drug release (%),"blocking ratio 2.5%, 4 h",100%
same,Cumulative drug release (%),"blocking ratio 2.5%, 5 h",100%
same,Cumulative drug release (%),"blocking ratio 2.5%, 6 h",100%
same,Cumulative drug release (%),"blocking ratio 50%, 0 h",0%
same,Cumulative drug release (%),"blocking ratio 50%, 0.5 h",86%
same,Cumulative drug release (%),"blocking ratio 50%, 1 h",90%
same,Cumulative drug release (%),"blocking ratio 50%, 1.5 h",93%
same,Cumulative drug release (%),"blocking ratio 50%, 2 h",96%
same,Cumulative drug release (%),"blocking ratio 50%, 3 h",100%
same,Cumulative drug release (%),"blocking ratio 50%, 4 h",100%
same,Cumulative drug release (%),"blocking ratio 50%, 5 h",100%
same,Cumulative drug release (%),"blocking ratio 50%, 6 h",100%
same,Cumulative drug release (%),"blocking ratio 75%, 0 h",0%
same,Cumulative drug release (%),"blocking ratio 75%, 0.5 h",61%
same,Cumulative drug release (%),"blocking ratio 75%, 1 h",77%
same,Cumulative drug release (%),"blocking ratio 75%, 1.5 h",83%
same,Cumulative drug release (%),"blocking ratio 75%, 2 h",87%
same,Cumulative drug release (%),"blocking ratio 75%, 3 h",91%
same,Cumulative drug release (%),"blocking ratio 75%, 4 h",94%
same,Cumulative drug release (%),"blocking ratio 75%, 5 h",97%
same,Cumulative drug release (%),"blocking ratio 75%, 6 h",100%
same,Cumulative drug release (%),"blocking ratio 85%, 0 h",0%
same,Cumulative drug release (%),"blocking ratio 85%, 0.5 h",49%
same,Cumulative drug release (%),"blocking ratio 85%, 1 h",59%
same,Cumulative drug release (%),"blocking ratio 85%, 1.5 h",65%
same,Cumulative drug release (%),"blocking ratio 85%, 2 h",73%
same,Cumulative drug release (%),"blocking ratio 85%, 3 h",79%
same,Cumulative drug release (%),"blocking ratio 85%, 4 h",87%
same,Cumulative drug release (%),"blocking ratio 85%, 5 h",93%
same,Cumulative drug release (%),"blocking ratio 85%, 6 h",98%
same,Cumulative drug release (%),"blocking ratio 95%, 0 h",0%
same,Cumulative drug release (%),"blocking ratio 95%, 0.5 h",33%
same,Cumulative drug release (%),"blocking ratio 95%, 1 h",41%
same,Cumulative drug release (%),"blocking ratio 95%, 1.5 h",51%
same,Cumulative drug release (%),"blocking ratio 95%, 2 h",59%
same,Cumulative drug release (%),"blocking ratio 95%, 3 h",71%
same,Cumulative drug release (%),"blocking ratio 95%, 4 h",83%
same,Cumulative drug release (%),"blocking ratio 95%, 5 h",90%
same,Cumulative drug release (%),"blocking ratio 95%, 6 h",94%
same,Cumulative drug release (%),"blocking ratio 100%, 0 h",0%
same,Cumulative drug release (%),"blocking ratio 100%, 0.5 h",0%
same,Cumulative drug release (%),"blocking ratio 100%, 1 h",0%
same,Cumulative drug release (%),"blocking ratio 100%, 1.5 h",0%
same,Cumulative drug release (%),"blocking ratio 100%, 2 h",0%
same,Cumulative drug release (%),"blocking ratio 100%, 3 h",0%
same,Cumulative drug release (%),"blocking ratio 100%, 4 h",0%
same,Cumulative drug release (%),"blocking ratio 100%, 5 h",0%
same,Cumulative drug release (%),"blocking ratio 100%, 6 h",0%
